{"source": "paper PMC5028181", "about": "(PLoS ONE, 2016)", "test_system": "T1, BmObc1 (oxalate biosynthetic component 1; His-BmObc1)", "T1 construct": "gene obc1", "assay_type": "biochemical, Burkholderia mallei"}
{"compound": "CC(=O)SCCNC(=O)CCNC(=O)[C@H](O)C(C)(C)COP(=O)(O)OP(=O)(O)OC[C@H]1O[C@@H](n2cnc3c(N)ncnc32)[C@H](O)[C@@H]1OP(=O)(O)O", "note": "[acetyl-CoA]", "values": [{"measurement": "Km", "result": "26.8 ± 2.3", "unit": "µM"}]}
{"compound": "O=C(O)CC(=O)C(=O)O", "note": "[oxaloacetate]", "values": [{"measurement": "Km", "result": "94.3 ± 9.2", "unit": "µM"}]}
{"compound": "CCC(=O)SCCNC(=O)CCNC(=O)[C@H](O)C(C)(C)COP(=O)(O)OP(=O)(O)OC[C@H]1O[C@@H](n2cnc3c(N)ncnc32)[C@H](O)[C@@H]1OP(=O)(O)O", "note": "[propionyl-CoA]", "values": [{"measurement": "Km", "result": "104 ± 12.7", "unit": "µM"}]}
